SMILES strings stand for the structures. A value given as a limit tells only on which side of the number the result lay.

The target in this assay is T1, BTK (Homo sapiens, UniProt Q06187).
T1 construct: endogenous in cells; host or cells: Mino cells
T1 sequence (Q06187 whole entry): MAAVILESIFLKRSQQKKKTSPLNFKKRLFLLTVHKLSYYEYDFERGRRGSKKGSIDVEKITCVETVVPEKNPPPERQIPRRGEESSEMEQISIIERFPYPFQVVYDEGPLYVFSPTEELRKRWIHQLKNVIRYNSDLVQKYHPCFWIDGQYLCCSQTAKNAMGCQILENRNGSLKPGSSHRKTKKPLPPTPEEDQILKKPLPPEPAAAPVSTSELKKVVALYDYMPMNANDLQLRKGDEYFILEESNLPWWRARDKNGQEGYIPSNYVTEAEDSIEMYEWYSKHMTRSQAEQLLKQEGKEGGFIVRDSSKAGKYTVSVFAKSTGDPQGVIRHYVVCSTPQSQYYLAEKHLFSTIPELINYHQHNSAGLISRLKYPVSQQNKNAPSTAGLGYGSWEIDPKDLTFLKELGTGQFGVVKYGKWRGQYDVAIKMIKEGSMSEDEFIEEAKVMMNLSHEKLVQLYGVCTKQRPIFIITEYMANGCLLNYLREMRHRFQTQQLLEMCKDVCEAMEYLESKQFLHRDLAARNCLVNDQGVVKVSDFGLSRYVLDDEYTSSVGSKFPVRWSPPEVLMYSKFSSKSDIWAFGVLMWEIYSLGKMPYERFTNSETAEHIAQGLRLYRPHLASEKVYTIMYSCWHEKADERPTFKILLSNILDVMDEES
Description: BTK degradation activity test in Mino cells (Westernblot or Elisa). Type of assay: cell-based. The note with it: 24-72 h incubation. Here is the method: The Mino cell line cells are 0.5˜1 million/well in 6-well plates. The compounds are diluted to different concentrations, added to the plate, and after 24-72 h of incubation, the cells are collected. After the cells were lysed, the total protein concentration in each well was determined with a BCA kit. The amount of BTK is determined using the Westernblot or Elisa method.
The DC50 is the concentration at which degradation of the target reaches its halfway point. A lower DC50 goes with a more potent degrader. Compound `NC(=O)c1cnc(N2CCCCC2)nc1Nc1ccc(C2CCN(CC3CCN(c4ccc5c(c4)C(=O)N(C4CCC(=O)NC4=O)C5=O)C3)CC2)c(F)c1` (stereo not drawn) [Compound 036, 4-((4-(1-((1-(2-(2,6-dioxopiperidin-3-yl)-1,3-dioxoisoindolin-5-yl)pyrrolidin-3-yl)methyl)piperidin-4-yl)-3-fluorophenyl)amino)-2-(piperidin-1-yl) pyrimidine-5-carboxamide] gave a DC50 of less than 10 nM.

The compound `NC(=O)c1cnc(N2CCCCC2)cc1Nc1ccc(N2CCN(CC3CCN(c4ccc5c(c4)C(=O)N(C4CCC(=O)NC4=O)C5=O)C3)CC2)c(F)c1` (stereo not drawn) [Compound 037, 4-((4-(4-((1-(2-(2,6-dioxopiperidin-3-yl)-1,3-dioxoisoindolin-5-yl)pyrrolidin-3-yl)methyl)piperazin-1-yl)-3-fluorophenyl)amino)-6-(piperidin-1-yl) nicotinamide] returned a DC50 of less than 10 nM.

With `NC(=O)c1cnc(N2CCCCC2)cc1Nc1ccc(C2CCN(CC3CCN(c4ccc5c(c4)C(=O)N(C4CCC(=O)NC4=O)C5=O)C3)CC2)cc1` (stereo not drawn) [Compound 038, 4-((4-(1-((1-(2-(2,6-dioxopiperidin-3-yl)-1,3-dioxoisoindolin-5-yl)pyrrolidin-3-yl)methyl)piperidin-4-yl)phenyl)amino)-6-(piperidin-1-yl) nicotinamide], the half-maximal degradation concentration (DC50) is less than 10 nM. In turn, `Cc1nc(C(N)=O)c(Nc2ccc(C3CCN(CC4CCN(c5ccc6c(c5)C(=O)N(C5CCC(=O)NC5=O)C6=O)C4)CC3)cc2)nc1N1CCCCC1` (stereo not drawn) [Compound 039, 3-((4-(1-((1-(2-(2,6-dioxopiperidin-3-yl)-1,3-dioxoisoindolin-5-yl)pyrrolidin-3-yl)methyl)piperidin-4-yl)phenyl)amino)-6-methyl-5-(piperidin-1-yl) pyrazine-2-carboxamide] returned a 50% degradation concentration (DC50) of less than 10 nM. `NC(=O)c1nnc(N2CCCCC2)cc1Nc1ccc(C2CCN(CC3CCN(c4ccc5c(c4)C(=O)N(C4CCC(=O)NC4=O)C5=O)C3)CC2)cc1` (stereo not drawn) [Compound 040, 4-((4-(1-((1-(2-(2,6-dioxopiperidin-3-yl)-1,3-dioxoisoindolin-5-yl)pyrrolidin-3-yl)methyl)piperidin-4-yl)phenyl)amino)-6-(piperidin-1-yl) pyridazine-3-carboxamide] returned a DC50 of less than 10 nM. The figure for `NC(=O)c1nnc(N2CCC[C@@H](O)C2)cc1Nc1ccc(C2CCN(CC3CCN(c4ccc5c(c4)C(=O)N(C4CCC(=O)NC4=O)C5=O)C3)CC2)cc1` (stereo partly drawn) [Compound 041, 4-((4-(1-((1-(2-(2,6-dioxopiperidin-3-yl)-1,3-dioxoisoindolin-5-yl)pyrrolidin-3-yl)methyl)piperidin-4-yl)phenyl)amino)-6-((R)-3-hydroxypiperidin-1-yl) pyridazine-3-carboxamide] is less than 10 nM; for `NC(=O)c1nc(F)c(N2CCCCC2)nc1Nc1ccc(C2CCN(CC3CCN(c4ccc5c(c4)C(=O)N(C4CCC(=O)NC4=O)C5=O)C3)CC2)cc1` (stereo not drawn) [Compound 042, 3-((4-(1-((1-(2-(2,6-dioxopiperidin-3-yl)-1,3-dioxoisoindolin-5-yl)pyrrolidin-3-yl)methyl)piperidin-4-yl)phenyl)amino)-6-fluoro-5-(piperidin-1-yl) pyrazine-2-carboxamide] it is less than 10 nM; for `COc1nc(C(N)=O)c(Nc2ccc(C3CCN(CC4CCN(c5ccc6c(c5)C(=O)N(C5CCC(=O)NC5=O)C6=O)C4)CC3)cc2)nc1N1CCCCC1` (stereo not drawn) [Compound 043, 3-((4-(1-((1-(2-(2,6-dioxopiperidin-3-yl)-1,3-dioxoisoindolin-5-yl)pyrrolidin-3-yl)methyl)piperidin-4-yl)phenyl)amino)-6-methoxy-5-(piperidin-1-yl) pyrazine-2-carboxamide] it is less than 10 nM. As for `CN1CCN(c2nnc(C(N)=O)c(Nc3ccc(N4CCC(CN5CCN(c6ccc(N7CCC(=O)NC7=O)cc6)CC5)CC4)nc3)n2)CC1` [Compound 047, 5-((6-(4-((4-(4-(2,4-dioxotetrahydropyrimidin-1(2H)-yl)phenyl)piperazin-1-yl)methyl)piperidin-1-yl)pyridin-3-yl)amino)-3-(4-methylpiperazin-1-yl)-1,2,4-triazine-6-carboxamide], the figure is less than 10 nM; as for `NC(=O)c1nnc(N2CCCCC2)nc1Nc1ccc(N2CC(CN3CCN(c4ccc5c(c4)C(=O)N(C4CCC(=O)NC4=O)C5=O)CC3)C2)cc1` (stereo not drawn) [Compound 049, 5-((4-(3-((4-(2-(2,6-dioxopiperidin-3-yl)-1,3-dioxoisoindolin-5-yl)piperazin-1-yl)methyl)azetidin-1-yl)phenyl)amino)-3-(piperidin-1-yl)-1,2,4-triazine-6-carboxamide], less than 10 nM; as for `CN1CCN(c2nnc(C(N)=O)c(Nc3ccc(N4CCC(CN5CCN(c6ccc(N7CCC(=O)NC7=O)cc6)CC5)CC4)c(F)c3)n2)CC1` [Compound 054, 5-((4-(4-((4-(4-(2,4-dioxotetrahydropyrimidin-1(2H)-yl)phenyl)piperazin-1-yl)methyl)piperidin-1-yl)-3-fluorophenyl)amino)-3-(4-methylpiperazin-1-yl)-1,2,4-triazine-6-carboxamide], less than 10 nM.

Turning to `NC(=O)c1nnc(N2CCCCC2)nc1Nc1ccc(C2CCN(C(=O)C3CCN(c4ccc5c(c4)C(=O)N(C4CCC(=O)NC4=O)C5=O)C3)CC2)cc1` (stereo not drawn) [Compound 055, 5-((4-(1-(1-(2-(2,6-dioxopiperidin-3-yl)-1,3-dioxoisoindolin-5-yl)pyrrolidine-3-carbonyl)piperidin-4-yl)phenyl)amino)-3-(piperidin-1-yl)-1,2,4-triazine-6-carboxamide], the DC50 is less than 10 nM. In turn, `NC(=O)c1nnc(N2CCCCC2)nc1Nc1ccc(N2CCN(C(=O)C3CCN(c4ccc5c(c4)C(=O)N(C4CCC(=O)NC4=O)C5=O)C3)CC2)cc1` (stereo not drawn) [Compound 056, 5-((4-(4-(1-(2-(2,6-dioxopiperidin-3-yl)-1,3-dioxoisoindolin-5-yl)pyrrolidine-3-carbonyl)piperazin-1-yl)phenyl)amino)-3-(piperidin-1-yl)-1,2,4-triazine-6-carboxamide] came in with a DC50 of less than 10 nM. The figure for `NC(=O)c1nnc(N2CCCCC2)nc1Nc1ccc(C2CCN(C(=O)C3CCN(c4ccc5c(c4)C(=O)N(C4CCC(=O)NC4=O)C5=O)CC3)CC2)cc1` (stereo not drawn) [Compound 057, 5-((4-(1-(1-(2-(2,6-dioxopiperidin-3-yl)-1,3-dioxoisoindolin-5-yl)piperidine-4-carbonyl)piperidin-4-yl)phenyl)amino)-3-(piperidin-1-yl)-1,2,4-triazine-6-carboxamide] is less than 10 nM. The figure for `NC(=O)c1nnc(N2CCCCC2)nc1Nc1ccc(N2CCN(C(=O)C3CCN(c4ccc5c(c4)C(=O)N(C4CCC(=O)NC4=O)C5=O)CC3)CC2)cc1` (stereo not drawn) [Compound 058, 5-((4-(4-(1-(2-(2,6-dioxopiperidin-3-yl)-1,3-dioxoisoindolin-5-yl)piperidine-4-carbonyl)piperazin-1-yl)phenyl)amino)-3-(piperidin-1-yl)-1,2,4-triazine-6-carboxamide] is less than 10 nM. The compound `NC(=O)c1nnc(N2CCCCC2)nc1Nc1ccc(N2CCC(C(=O)N3CCN(c4ccc5c(c4)C(=O)N(C4CCC(=O)NC4=O)C5=O)CC3)CC2)cc1` (stereo not drawn) [Compound 060, 5-((4-(4-(4-(2-(2,6-dioxopiperidin-3-yl)-1,3-dioxoisoindolin-5-yl)piperazine-1-carbonyl)piperidin-1-yl)phenyl)amino)-3-(piperidin-1-yl)-1,2,4-triazine-6-carboxamide] yielded a DC50 of less than 10 nM. The figure for `NC(=O)c1nnc(N2CCCCC2)nc1Nc1ccc(N2CCN(C(=O)C3CN(c4ccc5c(c4)C(=O)N(C4CCC(=O)NC4=O)C5=O)C3)CC2)cc1` (stereo not drawn) [Compound 061, 5-((4-(4-(1-(2-(2,6-dioxopiperidin-3-yl)-1,3-dioxoisoindolin-5-yl)azetidine-3-carbonyl)piperazin-1-yl)phenyl)amino)-3-(piperidin-1-yl)-1,2,4-triazine-6-carboxamide] is less than 10 nM. The figure for `CC(C)(C)C(=O)OCN1C(=O)CCC(N2C(=O)c3ccc(N4CCC(CN5CCC(c6ccc(Nc7nc(N8CCCCC8)nnc7C(N)=O)cc6)CC5)C4)cc3C2=O)C1=O` (stereo not drawn) [Compound 062, (3-(5-(3-((4-(4-((6-carbamoyl-3-(piperidin-1-yl)-1,2,4-triazin-5-yl)amino)phenyl)piperidin-1-yl)methyl)pyrrolidin-1-yl)-1,3-dioxoisoindolin-2-yl)-2,6-dioxopiperidin-1-yl) methyl pivalate] is less than 10 nM; for `CN1CCN(c2nnc(C(N)=O)c(Nc3ccc(C4CCN(CC5CCN(c6ccc7c(c6)C(=O)N(C6CCC(=O)N(COC(=O)C(C)(C)C)C6=O)C7=O)C5)CC4)cc3)n2)CC1` (stereo not drawn) [Compound 063, (3-(5-(3-((4-(4-((6-carbamoyl-3-(4-methylpiperazin-1-yl)-1,2,4-triazin-5-yl)amino)phenyl)piperidin-1-yl)methyl)pyrrolidin-1-yl)-1,3-dioxoisoindolin-2-yl)-2,6-dioxopiperidin-1-yl) methyl pivalate] it is less than 10 nM; for `CC(C)(C)C(=O)OCN1C(=O)CCC(N2C(=O)c3ccc(N4CCC(CN5CCN(c6ccc(Nc7nc(N8CCCCC8)nnc7C(N)=O)cc6F)CC5)C4)cc3C2=O)C1=O` (stereo not drawn) [Compound 064, (3-(5-(3-((4-(4-((6-carbamoyl-3-(piperidin-1-yl)-1,2,4-triazin-5-yl)amino)-2-fluorophenyl)piperazin-1-yl)methyl)pyrrolidin-1-yl)-1,3-dioxoisoindolin-2-yl)-2,6-dioxopiperidin-1-yl) methyl pivalate] it is less than 10 nM. The figure for `CC(C)(C)C(=O)OCN1C(=O)CCN(c2ccc(N3CCN(CC4CCN(c5ccc(Nc6nc(N7CCCCC7)nnc6C(N)=O)cc5F)CC4)CC3)cc2)C1=O` [Compound 066, (3-(4-(4-((1-(4-((6-carbamoyl-3-(piperidin-1-yl)-1,2,4-triazin-5-yl)amino)-2-fluorophenyl)piperidin-4-yl)methyl)piperazin-1-yl)phenyl)-2,6-dioxotetrahydropyrimidin-1(2H)-yl) methyl pivalate] is less than 10 nM.
